Experiment [1] deals with electric eel acetylcholinesterase (type-IV-S) (Electrophorus electricus, UniProt O42275). Briefly: biochemical. The format is biochemical.
The target of experiment [2] is equine butyrylcholinesterase (Equus caballus, UniProt P81908). Kind of experiment: Butyrylcholinesterase inhibition. The format is biochemical.

Like-named read-outs stand apart in the source and are kept apart here.

What is called IC50 is the concentration at which inhibition is half-maximal.

Sequence of electric eel acetylcholinesterase (type-IV-S) (O42275 24-633): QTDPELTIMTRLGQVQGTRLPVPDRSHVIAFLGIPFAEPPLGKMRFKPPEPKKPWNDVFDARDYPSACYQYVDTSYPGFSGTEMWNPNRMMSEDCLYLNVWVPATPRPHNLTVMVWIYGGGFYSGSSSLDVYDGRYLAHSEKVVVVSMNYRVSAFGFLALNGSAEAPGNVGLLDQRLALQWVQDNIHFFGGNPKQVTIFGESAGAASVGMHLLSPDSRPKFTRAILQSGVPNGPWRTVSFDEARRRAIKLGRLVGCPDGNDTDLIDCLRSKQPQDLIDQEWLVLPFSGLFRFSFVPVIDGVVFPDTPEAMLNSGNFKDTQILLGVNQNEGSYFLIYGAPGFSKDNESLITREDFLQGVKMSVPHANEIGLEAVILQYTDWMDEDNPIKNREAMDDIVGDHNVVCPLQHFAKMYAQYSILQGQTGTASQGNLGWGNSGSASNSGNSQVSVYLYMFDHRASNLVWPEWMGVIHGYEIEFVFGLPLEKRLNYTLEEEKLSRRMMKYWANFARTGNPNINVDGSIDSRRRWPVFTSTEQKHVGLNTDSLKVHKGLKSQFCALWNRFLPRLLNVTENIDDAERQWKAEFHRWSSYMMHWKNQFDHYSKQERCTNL
Sequence of equine butyrylcholinesterase (P81908 whole entry): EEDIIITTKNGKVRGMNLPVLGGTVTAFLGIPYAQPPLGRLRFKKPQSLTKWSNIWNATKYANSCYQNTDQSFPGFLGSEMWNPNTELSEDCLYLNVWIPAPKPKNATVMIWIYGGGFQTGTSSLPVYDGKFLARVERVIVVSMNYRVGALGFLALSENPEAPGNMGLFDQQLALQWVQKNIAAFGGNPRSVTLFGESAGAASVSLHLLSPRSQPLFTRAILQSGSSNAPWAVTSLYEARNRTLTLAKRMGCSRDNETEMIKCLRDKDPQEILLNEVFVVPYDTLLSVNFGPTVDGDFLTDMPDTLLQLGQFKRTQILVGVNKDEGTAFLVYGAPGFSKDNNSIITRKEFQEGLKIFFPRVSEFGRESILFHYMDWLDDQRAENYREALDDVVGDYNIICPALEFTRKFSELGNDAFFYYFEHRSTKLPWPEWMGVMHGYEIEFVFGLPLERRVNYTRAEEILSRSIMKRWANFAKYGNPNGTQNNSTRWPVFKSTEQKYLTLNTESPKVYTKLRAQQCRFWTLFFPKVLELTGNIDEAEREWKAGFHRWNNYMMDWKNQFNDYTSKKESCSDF

Regarding `CCCC/C=N/NC(=O)COc1ccc(Sc2ccc(OCC(=O)N/N=C/CCCC)cc2)cc1` [4x, 2,2′-((Thiobis(4,1-phenylene))bis(oxy))bis(N′-((E)-pentylidene)acetohydrazide)], the values for the IC50 in experiment [1] and in experiment [2] were 186.3 ± 0.876 µM and 103.1 ± 0.877 µM, respectively.

In the case of “2,2′-((Thiobis(4,1-phenylene))bis(oxy))bis(N′-((E)-4-fluorobenzylidene)acetohydrazide) [4s]”, the IC50 in experiment [1] (read-out: AChE IC50 (μM) ± SD, NA = not active, galantamine as positive control) is 91.5 ± 0.615 µM; in experiment [2] (read-out: BChE IC50 (μM) ± SD, NA = not active, galantamine as positive control), 36.4 ± 0.702 µM.

Take `CCC/C=N/NC(=O)COc1ccc(Sc2ccc(OCC(=O)N/N=C/CCC)cc2)cc1` [4y, 2,2′-((Thiobis(4,1-phenylene))bis(oxy))bis(N′-((E)-butylidene)acetohydrazide)]: the IC50 amounted to 122.6 ± 0.943 µM in experiment [1] and 101.1 ± 0.938 µM in experiment [2].

The record behind these values is article PMC10448230 (RSC Advances, 2023).
